The record followed here is patent US12421254B2, “KRAS modulators and uses thereof” (Quanta Therapeutics, Inc., priority 2023, dated 2025).

In assay [1] the test system is phospho-ERK in GP2D (KRAS-G12D) cells. Briefly: pERK In Cell Western (ICW) assay (Method B), GP2D. The class given is cell-based. To be noted: GP2d, 3 h, Table 4. The procedure, abridged:
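Read-out is In-Cell Western phospho-ERK signal divided by DRAQ5 per well, as percent of blank control, fitted with a 4-parameter variable-slope model for IC50. Compounds were dosed as 9-point half-log series for 3 h at 37°C on AGS, GP2D (G12D) or SW620 (G12V) cells plated the day before.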

The target of another assay is T1, w.t. KRAS/RAF1 (Homo sapiens, UniProt P01116).
T1 construct: KRAS (1-169) proteins were expressed in BL21 (DE3)-CodonPlus E. coli; His6-MBP (N, cleaved yes)
Briefly: Protein-protein interaction (PPI) HTRF assay w.t. KRAS/RAF1. The class given is binding. To be noted: Table 3; wt KRAS/RAF1. How it is done:
When RAS proteins are in the active GTP-bound conformation, they bind the effector protein RAF1 at the N-terminus Ras-binding domain (RBD, residues 52-131) (Tran, et al., 2021). Homogenous time resolved fluorescence (HTRF) was used to monitor the interaction between wt or mutant KRAS and RAF1 or wt NRAS and RAF1. Compounds were assayed in the presence of KRAS G12D/V and RAF1 versus wt KRAS to assess activity against mutant and w.t. KRAS. Similarly, compounds were then assayed in the presence of w.t. NRAS and RAF1 to assess RAS isoform selectivity. In all assay formats, His-tagged RAF1 protein was incubated with the HTRF donor, anti-6His Tb Cryptate gold (Cisbio 61DB10RDF), and biotinylated RAS proteins were incubated with the HTRF acceptor, streptavidin-d2 (CisBio 610SADLA). The intensity of the fluorescence signal emitted is proportional to binding between the two proteins. The donor solution was prepared by mixing 16 nM His-tagged RAF1 in protein dilution buffer with 1:100 anti-6His Tb cryptate in PPI-Terbium detection buffer. 16 nM biotinylated RAS protein was diluted into protein dilution buffer (50 mM Tris-HCl pH 7.5, 150 mM NaCl, 0.1 mM MgCl2, 1 mM TCEP, 0.005% Tween20) and mixed with 1:2000 Streptavidin-d2 diluted in PPI-Terbium detection buffer (CisBio 61DB10RDF). 50× compound in DMSO was mixed with 16 nM KRAS-acceptor solution and incubated for 30 minutes at room temperature. After compound pre-incubation with KRAS, the RAF1 donor solution was added to the KRAS-acceptor solution and incubated for 1 hour at room temperature. The fluorescence signal emitted was monitored at 665 nm and 615 nm using an Envision multimode plate reader. The HTRF ratio (665/615) was calculated and normalized to 0% inhibition in the absence of compound and 100% inhibition in the presence of untagged RAF1 protein. PPI KRAS G12D/RAF1, KRAS G12V/RAF1, w.t. KRAS/RAF1 and NRAS/RAF1 IC50 (uM) values of selected compounds are depicted in Table 3 and Table 4 with compounds having a value <0.1 uM as ++++; ≥0.1 uM to 1 uM as +++; ≥1 uM to 10 uM as ++; ≥10 uM to 100 uM as +; and ≥100 uM as NA.
On the technique in general: TR-FRET usually uses a lanthanide donor and a delayed reading to cut background.

T1 sequence (P01116 with tags, fused parts or gaps isoform P01116-2): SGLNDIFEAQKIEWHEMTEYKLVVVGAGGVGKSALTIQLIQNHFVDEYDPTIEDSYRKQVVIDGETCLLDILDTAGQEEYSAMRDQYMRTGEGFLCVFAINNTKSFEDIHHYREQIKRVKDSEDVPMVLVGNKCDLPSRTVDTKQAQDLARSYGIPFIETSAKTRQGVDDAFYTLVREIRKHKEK

A word on the IC50: it is the point on the concentration scale where inhibition reaches its midpoint. A higher IC50 goes with weaker potency. For `N#Cc1c(N)sc2c1C1(CC2)CN(c2nc(OC[C@@]34CCCN3C[C@H](F)C4)nc(N3CCCC(C#N)C3)n2)C1` (stereo partly drawn) [Compound 13, 2-amino-1′-[4-(3-cyano-1-piperidyl)-6-[[(2R,8S)-2-fluoro-1,2,3,5,6,7-hexahydropyrrolizin-8-yl]methoxy]-1,3,5-triazin-2-yl]spiro[5,6-dihydrocyclopenta[b]thiophene-4,3′-azetidine]-3-carbonitrile], the IC50 in assay [1] was in the range of 100 to 1000 nM; against w.t. KRAS/RAF1, 1 to 10 µM.
For `C[C@@]1(O)CCCN(c2nc(OC[C@@]34CCCN3C[C@H](F)C4)nc(N3CC4(CCc5sc(N)c(C#N)c54)C3)n2)C1` [Compound 10, 2-amino-1′-[4-[[(2R,8S)-2-fluoro-1,2,3,5,6,7-hexahydropyrrolizin-8-yl]methoxy]-6-[(3R)-3-hydroxy-3-methyl-1-piperidyl]-1,3,5-triazin-2-yl]spiro[5,6-dihydrocyclopenta[b]thiophene-4,3′-azetidine]-3-carbonitrile], the IC50 in assay [1] is 10 to 100 nM; against w.t. KRAS/RAF1 it was 1 to 10 µM.
Consider `N#Cc1c(N)sc2c1C1(CC2)CN(c2nc(OCC34CCCN3CC(F)C4)nc(N3CC4CCC(C3)N4)n2)C1` [Compound 1, 2-amino-1′-[4-(3,8-diazabicyclo[3.2.1]octan-3-yl)-6-[[(2R,8S)-2-fluoro-1,2,3,5,6,7-hexahydropyrrolizin-8-yl]methoxy]-1,3,5-triazin-2-yl]spiro[5,6-dihydrocyclopenta[b]thiophene-4,3′-azetidine]-3-carbonitrile], for which the half-inhibitory concentration (IC50) lay within 10 to 100 nM in assay [1] and 1 to 10 µM against w.t. KRAS/RAF1.
Taken in the same sequence, the figures for `N#Cc1c(N)sc2c1C1(CCC2)CN(c2nc(OCC3(CN4CCOCC4)CC3)nc(N3C[C@H]4CC[C@@H](C3)N4)n2)C1` [Compound 3, 2-amino-1′-[4-[(1R,5S)-3,8-diazabicyclo[3.2.1]octan-3-yl]-6-[[1-(morpholinomethyl)cyclopropyl]methoxy]-1,3,5-triazin-2-yl]spiro[6,7-dihydro-5H-benzothiophene-4,3′-azetidine]-3-carbonitrile] were 10 to 100 nM and 1 to 10 µM.
In the case of `N#Cc1c(N)sc2c1C1(CC2)CN(c2nc(OCC3(CN4CCOCC4)CC3)nc(N3CCCC4(C3)NC(=O)NC4=O)n2)C1` (stereo not drawn) [Compound 7, 2-amino-1′-[4-(2,4-dioxo-1,3,9-triazaspiro[4.5]decan-9-yl)-6-[[1-(morpholinomethyl)cyclopropyl]methoxy]-1,3,5-triazin-2-yl]spiro[5,6-dihydrocyclopenta[b]thiophene-4,3′-azetidine]-3-carbonitrile], the IC50 in assay [1] lay in the range of 1000 to 20000 nM; at w.t. KRAS/RAF1, 0.1 to 1 µM.
As to `N#Cc1c(N)sc2c1C1(CC2)CN(c2nc(OCC3(CN4CCOCC4)CC3)nc(N3C[C@H]4CC[C@@H](C3)N4)n2)C1` [Compound 2, 2-amino-1′-[4-[[1-(morpholinomethyl)cyclopropyl]methoxy]-6-[(1R,5S)-3,8-diazabicyclo[3.2.1]octan-3-yl]-1,3,5-triazin-2-yl]spiro[5,6-dihydrocyclopenta[b]thiophene-4,3′-azetidine]-3-carbonitrile], the IC50 in assay [1] fell in the range of 10 to 100 nM; on w.t. KRAS/RAF1, 1 to 10 µM.
